Holding throughout (type): biochemical
The target in one test is PLK4 (h) (Homo sapiens, UniProt O00444). As to the kind of experiment: PLK-4 human kinase assay (SPA). The settings on record: for IC50: read-out: PLK4 pIC50 (converted). On the procedure: (§1) The in vitro inhibition of a panel of kinases was assessed using either the scintillation proximity assay (SPA) as described by Cook, N. D. et al., Advances in Experimental Medicine and Biology (1991), 36; p. 525-528; or the Fluorescence Resonance Energy Transfer (FRET) technology as described by Rodems, S. M. et al., Assay Drug Develop. Technol. (2002), 1; p. 9-19.
PLK4 (h), sequence (O00444 whole entry): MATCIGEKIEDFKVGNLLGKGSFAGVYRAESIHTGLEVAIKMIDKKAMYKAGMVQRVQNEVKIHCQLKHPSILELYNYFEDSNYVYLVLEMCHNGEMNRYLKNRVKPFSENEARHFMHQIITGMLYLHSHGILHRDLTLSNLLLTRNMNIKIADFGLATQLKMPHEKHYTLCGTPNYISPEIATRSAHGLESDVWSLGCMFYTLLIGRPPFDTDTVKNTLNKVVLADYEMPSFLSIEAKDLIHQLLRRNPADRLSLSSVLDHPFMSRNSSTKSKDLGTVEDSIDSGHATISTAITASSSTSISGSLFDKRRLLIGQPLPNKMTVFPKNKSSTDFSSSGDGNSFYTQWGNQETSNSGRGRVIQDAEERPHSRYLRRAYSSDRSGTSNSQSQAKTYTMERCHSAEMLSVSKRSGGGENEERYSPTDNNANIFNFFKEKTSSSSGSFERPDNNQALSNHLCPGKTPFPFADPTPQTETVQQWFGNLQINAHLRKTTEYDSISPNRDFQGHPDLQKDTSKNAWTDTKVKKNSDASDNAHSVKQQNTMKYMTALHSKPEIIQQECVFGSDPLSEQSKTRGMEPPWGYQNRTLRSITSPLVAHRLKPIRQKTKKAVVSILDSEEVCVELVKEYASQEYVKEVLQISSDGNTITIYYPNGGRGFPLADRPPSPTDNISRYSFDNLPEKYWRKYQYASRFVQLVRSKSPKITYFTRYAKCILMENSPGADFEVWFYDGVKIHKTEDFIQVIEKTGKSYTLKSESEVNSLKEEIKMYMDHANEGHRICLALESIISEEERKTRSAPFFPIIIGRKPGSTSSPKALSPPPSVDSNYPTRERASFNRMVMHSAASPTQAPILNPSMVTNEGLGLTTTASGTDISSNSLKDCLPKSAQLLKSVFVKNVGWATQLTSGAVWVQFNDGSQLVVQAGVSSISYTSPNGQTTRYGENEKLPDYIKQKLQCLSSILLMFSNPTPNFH
(§2) In the SPA technology the activity of the kinase of interest is measured using an appropriate biotinylated substrate that is incubated with the aforementioned kinase protein in the presence of (^33P) radiolabeled ATP. (^33P) Phosporylation of the substrate is subsequently measured through binding of the phosphorylated substrate to streptavidine coated beads that are based on the scintillant poly(vinyl toluene) (PVT-Beads). The scintillation intensity is detected by imaging on Leadseeker.
(§3) All kinases are pre-diluted to a 10× working concentration prior to addition into the assay. The composition of the dilution buffer for each kinase is detailed below.
In a final reaction volume of 30 μl PLK4 (h) (19 μg/ml) is incubated with 50 mM Hepes pH 8.0, 10 mM MgCl2, 50 mM NaCl, 1 mM NaF, 1 mM DTT, 10 μM of peptide Biotin-RPRGQRDSSYYWE-OH, 1 μM ATP and 2 nM [γ-^33P-ATP] (6.0 μCi/ml). After incubation of 60 minutes at room temperature, the reaction is stopped by addition of 40 μl, of stop solution containing 8.7 mM EDTA, BSA 0.17%, 0.17% Triton X-100, 1.7 mg/ml SPA beads (GE-healthcare). The plate is centriguged and read for Scintillation imaging on Leadseeker.

The next test deals with AuroraB (h) (Homo sapiens, UniProt Q96GD4). Nature of the test: Aurora-B human kinase assay (SPA). The settings on record: for IC50: read-out: AuroraB pIC50 (converted). The protocol:
as §1, §2, §3
In a final reaction volume of 30 μl, AuroraB (h) (0.5 μg/ml) is incubated with 60 mM Hepes pH 7.5, 3 mM MgCl2, 3 mM MnCl2, 3 μM Na3VO4, 0.05 mg/ml PEG, 2 mM DTT, 3 μM Biotin-[…]-OH, 0.5 μM ATP and 2.2 nM [γ-^33P-ATP] (6.8 μCi/ml). After incubation of 60 minutes at room temperature, the reaction is stopped by addition of 40 μL of stop solution containing 8.7 mM EDTA, BSA 0.17%, 0.17% Triton X-100, 5 mg/ml SPA beads (GE-healthcare). The plate is centriguged and read for Scintillation imaging on Leadseeker.

The next test deals with GSK3β (h) (Homo sapiens, UniProt P49841). As to the kind of experiment: GSK-3β human kinase assay (SPA). The settings on record: for IC50: read-out: GSK3B pIC50 (converted). The protocol: as §1, §2, §3
GSK3β (h), sequence (P49841 whole entry): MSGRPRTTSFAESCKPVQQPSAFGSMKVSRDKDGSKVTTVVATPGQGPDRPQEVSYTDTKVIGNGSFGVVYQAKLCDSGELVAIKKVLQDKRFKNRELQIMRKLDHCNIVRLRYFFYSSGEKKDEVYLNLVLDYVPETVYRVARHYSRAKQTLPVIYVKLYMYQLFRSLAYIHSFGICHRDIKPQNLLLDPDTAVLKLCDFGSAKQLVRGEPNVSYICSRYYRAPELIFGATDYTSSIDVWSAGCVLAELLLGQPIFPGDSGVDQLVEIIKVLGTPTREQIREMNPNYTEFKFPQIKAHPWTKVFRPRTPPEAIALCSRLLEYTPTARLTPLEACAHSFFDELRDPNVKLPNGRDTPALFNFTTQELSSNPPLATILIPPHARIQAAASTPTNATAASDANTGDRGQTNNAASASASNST
In a final reaction volume of 30 μl, GSK3β (h) (1 μg/ml) is incubated with 25 mM Tris pH 7.4, 10 mM MgCl2, 1 mM DTT, 1 μM peptide Biotin-KRREILSRRPSYR-OH, 1 μM ATP and 2 nM [γ-^33P-ATP] (6.0 μCi/ml). After incubation of 60 minutes at room temperature, the reaction is stopped by addition of […] of stop solution containing 8.7 mM EDTA, BSA 0.17%, 0.17% Triton X-100, 6.25 mg/ml SPA beads (GE-healthcare). The plate is centriguged and read for Scintillation imaging on Leadseeker.

The next test deals with CDK1/CyclinB (h) (Homo sapiens, UniProt P06493). Nature of the test: CDK1/CyclinB human kinase assay (FRET). The conditions noted are these: for IC50: read-out: CDK1 pIC50 (converted). On the procedure: as §1
CDK1/CyclinB (h), sequence (P06493 whole entry): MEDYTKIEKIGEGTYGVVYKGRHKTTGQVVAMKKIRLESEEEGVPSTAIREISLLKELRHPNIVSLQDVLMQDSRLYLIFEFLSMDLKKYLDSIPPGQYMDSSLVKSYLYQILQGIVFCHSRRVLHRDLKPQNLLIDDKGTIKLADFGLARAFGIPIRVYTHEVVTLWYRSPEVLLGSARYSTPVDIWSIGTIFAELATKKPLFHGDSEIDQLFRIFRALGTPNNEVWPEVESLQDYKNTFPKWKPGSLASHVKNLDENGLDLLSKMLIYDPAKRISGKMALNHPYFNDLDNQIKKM
CDK1/CyclinB (h), sequence (P14635 whole entry partner): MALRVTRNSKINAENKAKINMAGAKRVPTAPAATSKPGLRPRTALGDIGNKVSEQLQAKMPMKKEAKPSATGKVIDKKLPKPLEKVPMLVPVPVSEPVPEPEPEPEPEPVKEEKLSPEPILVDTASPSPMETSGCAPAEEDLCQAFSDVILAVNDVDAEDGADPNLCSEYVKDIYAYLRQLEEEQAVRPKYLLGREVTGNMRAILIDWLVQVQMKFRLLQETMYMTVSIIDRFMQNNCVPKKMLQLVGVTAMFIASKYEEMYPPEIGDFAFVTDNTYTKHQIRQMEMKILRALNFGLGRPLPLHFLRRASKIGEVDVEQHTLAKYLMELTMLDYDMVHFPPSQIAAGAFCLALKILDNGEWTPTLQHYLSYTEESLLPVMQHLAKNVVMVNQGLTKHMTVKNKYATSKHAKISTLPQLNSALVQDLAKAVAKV
In the FRET technology the activity of the kinase of interest is measured using an appropriate substrate that is labeled with two fluorophores (coumarin and fluorescein). Phosphorylation is determined using a developing reagent comprising a protease that recognizes and cleaves nonphosphorylated peptides. Cleavage will disturb the FRET between the fluorescein and coumarin on the peptide. Uncleaved, phosphorylated peptides maintain the FRET signal. A ratiometric readout of the donor emission over the acceptor emission quantitates the reaction process.
as §3
In a final reaction volume of 10 μl, CDK1/CyclinB (h) (0.2 μg/ml) is incubated with 50 mM Hepes pH 7.5, 10 mM MgCl2, 1 mM EGTA, 0.01% Brij-35, 2 μM Z'lyte Ser/Thr peptide 12 and 10 μM ATP (Invitrogen's FRET assay). After incubation of 60 minutes at room temperature, the reaction is stopped by addition of 5 μL development reagent containing protease mix. After 60 minutes room temperature the development reaction is stopped by adding 5 μl stop solution. The plate is then read in fluorescence plate reader with excitation: 390 nm and dual emission: 460 and 538 nm. Emission ratio is determined to the formula=Emission signal intensity at 460 nm/Emission signal intensity at 538 nm.

“And” between values parts separate entries of the source, which are not always exact repeats. Equal values may be shown once.

The values below come from patent publication US8338422B2, “Indolin-2-ones and aza-indolin-2-ones” (Janssen Pharmaceutica NV, priority 2007, dated 2012).

AuroraB (h), sequence (Q96GD4 whole entry): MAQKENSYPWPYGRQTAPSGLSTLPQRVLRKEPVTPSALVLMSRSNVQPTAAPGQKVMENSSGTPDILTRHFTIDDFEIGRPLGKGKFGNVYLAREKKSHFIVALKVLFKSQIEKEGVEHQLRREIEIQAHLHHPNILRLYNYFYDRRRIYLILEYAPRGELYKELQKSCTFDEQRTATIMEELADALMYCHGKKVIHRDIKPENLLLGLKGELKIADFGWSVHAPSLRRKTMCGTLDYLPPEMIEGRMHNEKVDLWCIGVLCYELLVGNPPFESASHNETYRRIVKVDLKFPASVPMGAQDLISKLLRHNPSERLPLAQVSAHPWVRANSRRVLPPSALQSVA

Take `CCN1CCCCCC(=O)N2CCN(CC2)c2cccc3c2C(=CNc2cccc(c2)S(=O)(=O)N(C)CC1=O)C(=O)N3` (mixture of isomers) [Compound 1]: the IC50 was 6.92 µM at PLK4 (h), greater than 10 µM at AuroraB (h), 1.82 µM at GSK3β (h) and greater than 10 µM at CDK1/CyclinB (h).
As for `CN1CCCC(=O)N2CCN(CC2)c2ncnc3c2C(=CNc2cccc(c2)C1)C(=O)N3` (mixture of isomers) [Compound 11], at PLK4 (h), the IC50 is 3.09 µM.
For the molecule `O=C1Nc2ncnc3c2C1=CNc1ccc(Cl)c(c1)OCCCCC(=O)N1CCN3CC1` (mixture of isomers) [Compound 12], the IC50 at PLK4 (h) was greater than 10 µM.
For the molecule `O=C1Nc2ncnc3c2C1=CNc1cc(ccc1Cl)OCCCCCC(=O)N1CCN3CC1` (mixture of isomers) [Compound 19], the “PLK4 pIC50” value on PLK4 (h) was less than 5. For the same molecule, on AuroraB (h), the “AuroraB pIC50” value is less than 5.
Consider `COc1ccc2cc1OCCCCC(=O)N(C)CCCNc1ncnc3c1C(=CN2)C(=O)N3` (mixture of isomers) [Compound 62], for which, at PLK4 (h), the “PLK4 pIC50” value was 6.9. In addition, the “AuroraB pIC50” value on AuroraB (h) was found to be 7.75. Further, on GSK3β (h), the “GSK3B pIC50” value is 7.57. Further, the “CDK1 pIC50” value on CDK1/CyclinB (h) was 6.46.
In the case of `CN1CC(=O)NCC#Cc2cccc3c2/C(=C/Nc2cccc(c2)S1(=O)=O)C(=O)N3` [Compound 4], the IC50 on PLK4 (h) is 0.102 µM; at AuroraB (h) it was greater than 10 µM.
Take `COc1ccc2cc1OCCCCCC(=O)N(C)CCCN(C)c1ncnc3c1/C(=C/N2)C(=O)N3` [Compound 84]: the figures for the IC50 at PLK4 (h), at AuroraB (h) and at GSK3β (h) were 2.95 µM, greater than 10 µM and 0.372 µM, respectively.
For `COc1ccc2cc1OCCCCCCC(=O)N(C)CCCN(C)c1ncnc3c1/C(=C/N2)C(=O)N3` [Compound 85], the IC50 at PLK4 (h) was 5.01 µM; at AuroraB (h) it was greater than 10 µM; at GSK3β (h), 1.1 µM.
Regarding `CN1CCCCC(=O)N(C)CCNc2ncnc3c2/C(=C/Nc2ccc(N4CCOCC4)c(c2)C1)C(=O)N3` [Compound 93], the IC50 was 7.24 µM at PLK4 (h), greater than 10 µM on AuroraB (h) and greater than 10 µM at CDK1/CyclinB (h).
For the molecule `O=C1COc2cccc(c2)N/C=C2\C(=O)Nc3ncnc(c32)N2CCN(CC2)C[C@@H](Cc2ccccc2)N1` [Compound 101], the IC50 at PLK4 (h) was 3.16 µM; at AuroraB (h) it was greater than 10 µM; on GSK3β (h), 0.457 µM.
Consider `CN1CCCNc2ncnc3c2/C(=C/Nc2cccc(c2)OCCN(C)[C@H](CO)C1=O)C(=O)N3` [Compound 102], for which the IC50 at PLK4 (h) is 1.95 µM; on AuroraB (h), 6.46 µM; at GSK3β (h), 0.0776 µM.
Take `CN1CCCNc2ncnc3c2/C(=C/Nc2cccc(c2)OCCN(C)[C@H](CO)C1=O)C(=O)N3` [Compound 103]: the IC50 at PLK4 (h) is 1.86 µM and 4.17 µM; on AuroraB (h), 8.71 µM and 7.76 µM.
As to `CN1CCC(=O)N(C)CCNc2ncnc3c2/C(=C/Nc2ccc(Cl)c(c2)OCC(O)C1)C(=O)N3` (centres unmarked) [Compound 104], the IC50 at AuroraB (h) was 3.39 µM; at GSK3β (h) it was 1.1 µM.
Consider `COCCN1CCOc2cccc(c2)N/C=C2\C(=O)Nc3ncnc(c32)NCCN(C)C(=O)C1` [Compound 161], for which the IC50 at PLK4 (h) was 5.13 µM; at AuroraB (h), 7.41 µM; at GSK3β (h), 0.832 µM.
For the molecule `COCCN1CCCOc2cccc(c2)N/C=C2\C(=O)Nc3ncnc(c32)NCCN(C)C(=O)C1` [Compound 162], the IC50 on PLK4 (h) was 3.09 µM; at AuroraB (h), greater than 10 µM; on GSK3β (h) it was 2.51 µM.
For `COCCN1CCOc2cccc(c2)N/C=C2\C(=O)Nc3ncnc(c32)NCCCN(C)C(=O)C1` [Compound 163], in that order: 0.589 µM, 6.46 µM and 0.0631 µM.
As for `CN1CCNc2ncnc3c2/C(=C/Nc2cccc(c2)OCCN(C)[C@H](CO)C1=O)C(=O)N3` [Compound 164], the IC50 at PLK4 (h) is 3.63 µM; at AuroraB (h), 5.25 µM; at GSK3β (h), 0.759 µM.
For the molecule `CN1CCNc2ncnc3c2/C(=C/Nc2cccc(c2)OCCN2C[C@H](O)C[C@@H]2C1=O)C(=O)N3` [Compound 166], the results for the IC50 on PLK4 (h), on AuroraB (h) and on GSK3β (h) were 2.19 µM, greater than 10 µM and 1.02 µM, respectively.
Turning to `O=C1Nc2ncnc3c2/C1=C/Nc1cccc(c1)OCCN1C[C@H](O)C[C@@H]1C(=O)N1CCN3CC1` [Compound 171], the IC50 is greater than 10 µM on PLK4 (h), greater than 10 µM at AuroraB (h) and 0.309 µM at GSK3β (h).
In the case of `CN1CCNc2ncnc3c2/C(=C/Nc2cccc(c2)OCCCN(C)[C@H](CO)C1=O)C(=O)N3` [Compound 173], the figures for the IC50 on PLK4 (h), on AuroraB (h) and at GSK3β (h) were 4.27 µM, greater than 10 µM and 0.575 µM, respectively.
As for `COCCN1CCCOc2cc(ccc2Cl)N/C=C2\C(=O)Nc3ncnc(c32)NCCN(C)C(=O)C1` [Compound 174], the IC50 was greater than 10 µM on PLK4 (h); greater than 10 µM at AuroraB (h); 1.62 µM and 1.86 µM on GSK3β (h).
As to `O=C1Nc2ncnc3c2/C1=C/Nc1cccc(c1)OCCCN1C[C@H](O)C[C@@H]1C(=O)N1CCN3CC1` [Compound 175], the IC50 was greater than 10 µM on PLK4 (h); greater than 10 µM on AuroraB (h); 1.58 µM and 1.35 µM at GSK3β (h).
In the case of `CN1CCCNc2ncnc3c2/C(=C/Nc2ccc(Cl)c(c2)OCCN(C)[C@H](CO)C1=O)C(=O)N3` [Compound 177], the IC50 on PLK4 (h) was 4.37 µM and 7.24 µM; at AuroraB (h), 2.51 µM and 6.46 µM; at GSK3β (h), 0.0661 µM and 0.0457 µM.
`COCCN1CCCOc2cc(ccc2Cl)N/C=C2\C(=O)Nc3ncnc(c32)N2CCN(CC2)C(=O)C1` [Compound 180]: the IC50 was greater than 10 µM on PLK4 (h); greater than 10 µM on AuroraB (h); 3.47 µM and 5.37 µM on GSK3β (h).
Regarding `CN1CCCOc2cc(ccc2Cl)N/C=C2\C(=O)Nc3ncnc(c32)N2CCN(CC2)C(=O)[C@H]1CO` [Compound 181], the IC50 is greater than 10 µM at PLK4 (h), greater than 10 µM at AuroraB (h) and 2.24 µM on GSK3β (h).
As for `CN1CCNc2ncnc3c2/C(=C/Nc2ccc(Cl)c(c2)OCCCN(C)[C@H](CO)C1=O)C(=O)N3` [Compound 190], the IC50 is greater than 10 µM on PLK4 (h), greater than 10 µM on AuroraB (h) and 1.55 µM at GSK3β (h).
In the case of `CN1CCNc2ncnc3c2/C(=C/Nc2ccc(Cl)c(c2)OCCN2C[C@H](O)C[C@@H]2C1=O)C(=O)N3` [Compound 194], the IC50 at PLK4 (h) is 5.13 µM; at AuroraB (h) it was greater than 10 µM; at GSK3β (h), 0.457 µM.
On to `O=C1Nc2ncnc3c2/C1=C/Nc1ccc(Cl)c(c1)OCCN1C[C@H](O)C[C@@H]1C(=O)N1CCN3CC1` [Compound 196], for which the IC50 at AuroraB (h) is greater than 10 µM; on GSK3β (h), 1.51 µM.
Turning to `COCCN1CCCOc2cc(ccc2OC)N/C=C2\C(=O)Nc3ncnc(c32)NCCNC(=O)C1` [Compound 202], the IC50 on AuroraB (h) was 3.98 µM; at GSK3β (h), 4.68 µM.
As to `COc1ccc2cc1OCCCN(C)[C@H](CO)C(=O)N1CCN(CC1)c1ncnc3c1/C(=C/N2)C(=O)N3` [Compound 204], the IC50 was greater than 10 µM on AuroraB (h) and 1.35 µM at GSK3β (h).
Regarding `COCCN1CCOc2cc(ccc2Cl)N/C=C2\C(=O)Nc3ncnc(c32)NCCCN(C)C(=O)C1` [Compound 205], the IC50 at AuroraB (h) is greater than 10 µM; on GSK3β (h) it was 0.0933 µM.
